Laboratory results taken from patent US20200281949A1, “METHODS FOR TREATING CASTRATION-RESISTANT AND CASTRATION-SENSITIVE PROSTATE CANCER” (TOLERO PHARMACEUTICALS, INC., priority 2018, published 2020).

What was measured:
PC3 cells = experiment: Cell viability assay in PC3 prostate cancer cells; type: cell-based; details: Homo sapiens, PC-3, alvocidib 3.9 nM-1000 nM
Experimental: (§1) The compound of structure (I), and pharmaceutically acceptable salts and zwitterionic forms thereof, is converted in vivo to alvocidib (see U.S. Patent Publication No. US 2016/0340376, the full disclosure of which is hereby incorporated by reference in its entirety). Therefore, the in vitro effects of alvocidib were evaluated in multiple prostate cancer cell lines with varied sensitivity to androgen. PC3 is an AR-negative prostate cancer cell line with little to no expression of PSA and low sensitivity to androgens. VCAP is a prostate cancer cell line that is positive for ARv7, and can grow in an androgen-independent manner. LNCAP is an androgen-dependent prostate cancer cell line. 22Rv1 is a prostate cancer cell line that is positive for ARv7, has low sensitivity to androgen, and is derived from a xenograft that was serially propagated in mice after castration-induced regression and relapse of the parental, androgen-dependent CWR22 xenograft. […] Cell viability may be assessed, for example, using CellTiter-Glo according to manufacturer protocol.

VCAP cells = experiment: Cell viability assay in VCAP prostate cancer cells; type: cell-based; details: Homo sapiens, alvocidib 3.9 nM-1000 nM
Experimental: as §1

LNCaP cells = experiment: Cell viability assay in LNCaP prostate cancer cells; type: cell-based; details: Homo sapiens, alvocidib 3.9 nM-1000 nM
Experimental: as §1

22Rv1 cells = experiment: Cell viability assay in 22Rv1 prostate cancer cells; type: cell-based; details: Homo sapiens, alvocidib 0.0026 nM-1000 nM
Experimental: as §1

[1] = test system: androgen receptor (phospho- and total-AR) in 22Rv1 and LNCaP cells; experiment: Immunoblotting of androgen receptor in serum-stimulated prostate cancer cells; type: cell-based, human; details: 80 nM or 160 nM, 24 hours of treatment, serum stimulated 1 hour before collection
Experimental: In a first experiment to evaluate the effects of alvocidib on serum stimulated prostate cancer cells, androgen receptor expression was assessed by immunoblotting. […] The prostate cancer cells, 22Rv1 or LNCaP, were treated with DMSO or alvocidib (80 nM or 160 nM), for either 3 hours or 24 hours, and were serum stimulated one hour prior to sample collection (or the cells were serum starved as a control).

[2] = test system: TMPRSS2 expression in 22Rv1 cells; experiment: Quantitative real-time PCR of TMPRSS2 mRNA in serum-stimulated 22Rv1 cells; type: cell-based, human; details: 80 nM or 160 nM, 3 or 24 hours, 22Rv1 cells serum stimulated 1 hour before collection
Experimental: In another experiment; androgen receptor expression and functionality were assessed using quantitative real-time PCR measurement of the mRNA level of transmembrane protease, serine 2 (TMPRSS2) mRNA levels in prostate cancer cell line 22Rv1, as described in Chen et al., 2012. […] TMPRSS1 is an androgen-responsive gene, which is transcriptionally regulated by androgen receptor. An androgen response may be driven by the addition of exogenous testosterone; or by serum stimulation (which contains androgens), in prostate cancer cell lines.
The 22Rv1 cells were treated with DMSO or alvocidib (80 nM or 160 nM) for either 3 hours or 24 hours, and serum stimulated one hour prior to sample collection (or the cells were serum starved as a control).

[3] = test system: PSA expression in 22Rv1 cells; experiment: PSA expression in serum-stimulated 22Rv1 cells; type: cell-based, human; details: 80 nM or 160 nM, 24 hours
Experimental: The 22Rv1 cells were treated with DMSO or alvocidib (80 nM or 160 nM) for 24 hours, and serum stimulated either 3 hours or 23 hours following treatment (or the cells were serum starved as a control).

[4] = test system: RNA Pol II phosphorylation in 22Rv1 cells; experiment: RNA Pol II phosphorylation by flow cytometry in 22Rv1 cells; type: cell-based, human; details: 80 nM or 160 nM, three hours, 10% serum stimulated 1 hour before collection; vs DMSO
Experimental: To evaluate the effects of alvocidib on serum-stimulated prostate cancer cells, RNA Polymerase (Pol) II phosphorylation was assessed by flow cytometry. The prostate cancer cells, 22Rv1 cells, were treated with DMSO or alvocidib (80 nM or 160 nM) for three hours, and were serum stimulated (10%) one hour prior to sample collection. Goat anti-rabbit IgG H&L was used as an isotype control.

PSA in VCaP cells = experiment: PSA protein level by Western blot in VCaP cells; type: cell-based; details: 25 nM or 100 nM, 48 hours, vs vehicle
Experimental: (§2) On the day of the treatment, the media was replaced with 10 mL of fresh media. […] Cells were collected by scraping, washed in PBS, and lysed using sonication in RIPA buffer supplemented with protease and phosphatase inhibitors. […] of protein was loaded into a 4-12% gel, and transferred to a nitrocellulose membrane. Blocking, anti-actin, and secondary staining was done in 5% milk. Anti-PSA antibody was diluted in BSA.

PSA in LNCaP cells = experiment: PSA protein level by Western blot in LNCaP cells; type: cell-based, human; details: 25 nM or 100 nM, 48 hours, vs vehicle
Experimental: as §2

[5] = test system: LNCaP cells (caspase 3 cleavage); experiment: Cell death by caspase 3 cleavage Western blot in LNCaP cells; type: cell-based, human; details: 100 nM, 48 hours, 10% serum
Experimental: LNCaP cells were treated with 100 nM alvocidib for 48 hours in regular 10% serum conditions. Cells were collected by scraping, washed in PBS, and lysed using sonication in RIPA buffer supplemented with protease and phosphatase inhibitors. […] of protein was loaded into a 4-12% gel, and transferred to a PVDF membrane. Blocking and staining was performed in 5% milk. […] Anti-actin was used as a loading control.

[6] = PK analysis in PC-3 mouse xenograft model (plasma and tumor, LC-MS/MS); type: in vivo; details: 24 hours after oral gavage of compound of structure (I) 7.5 or 15 mg/kg; PC-3 xenograft mice
Experimental: PC-3 prostate tumor cells were maintained in vitro as a monolayer culture in Ham's F12K medium supplemented with 10% fetal bovine serum at 37° C. in an atmosphere of 5% CO2 in air. The cells in an exponential growth phase were harvested and counted for tumor inoculation. Each mouse was inoculated subcutaneously at the right flank region with PC-3 prostate tumor cells (5×10^6 cells) in 0.1 ml of PBS for tumor development. When the mean tumor size reached approximately 300 mm^3, the mice were randomized and divided into study groups.

[7] = Phase I dose-escalation study in patients with advanced solid tumors: plasma PK; type: in vivo, human; details: for Tmax: plasma alvocidib, Cohort 5, 6 mg BID oral compound of structure (I) (Formulation No. 401-01)
Experimental: Plasma PK parameters of compound of structure (I) and alvocidib were evaluated in Cohorts 1-5 at specific timepoints during the study. Blood was collected from patients in Cohorts 1-5 according to the pharmacokinetic sampling schedule described in Table 9.
PK parameters were estimated using standard noncompartmental methods. Actual sample collection times were used rather than scheduled collection times. Plasma concentrations below the limit of quantification were treated as 0. Imbedded missing plasma concentrations (e.g., missing values between two observed values) were estimated using linear […]. This is consistent with using the trapezoidal rule to calculate AUC. Other missing plasma concentrations were excluded from calculations to estimate PK parameters.

[8] = test system: subcutaneous 22Rv1 human prostate cancer xenograft; experiment: Efficacy study in the 22Rv1 xenograft prostate cancer model; type: in vivo, male BALB/c nude mice; details: castrated mice, 21 days; doses per Table 1: Cmpd Str (I) 1.25 mg/kg p.o. BID or 10 mg/kg p.o. Q7D; enzalutamide 30 mg/kg p.o. QD; docetaxel 10 mg/kg i.p. Q7D; ABT199 100 mg/kg p.o. QD
Experimental: The objective of this study was to evaluate the in vivo therapeutic efficacy of the compound of structure (I) or a pharmaceutically acceptable salt or zwitterionic form thereof in the treatment of a subcutaneous 22Rv1 human prostate cancer xenograft model. For the 22Rv1 model, efficacy of the compound of structure (I) was evaluated in male BALB/c nude mice. Cobalt-60 irradiation of all mice was performed 2 days before the tumor inoculation at 2 Gy (1 Gy=100 rads). Each mouse was inoculated at the right flank with 1×10^7 tumor cells in 0.1 ml of PBS mixed with matrigel (1:1). The date of tumor cell inoculation was denoted as day 0.
Castration was performed when mean tumor volume reached approximately 200 mm^3. Mice were anesthetized with ketamine/xylazine; surgical castration was performed via a midline scrotal incision allowing bilateral access to the hemiscrotal contents; after exposing each testicle, a 6-0 Vicryl suture was used to ligate the spermatic cord and then remove the testicle; the scrota and skin was then closed with 6-0 Vicryl suture, separately. Treatments started when the mean tumor volume re-grew to approximately 100 mm^3.
After tumors reached the appropriate size, approximately 100-200 mm^3, mice were randomized into treatment groups 1-11, which are shown in Table 1. Each treatment was administered starting on day 15, at a dosing volume of 5 μL/g and continued for 21 days (or 22 days for groups with treatment at Q7D). For groups with treatment at Q7D×3 weeks, dosing was performed on days 1, 8, and 15 post-randomization, and the study was terminated on day 22 post randomization. The combined treatment intervals were each 0 h, and the interval for BID was 8 h. Randomization was performed based on the “Matched distribution” method (StudyDirector™ software, version 3.1.399.19) randomized block design.
Tumor volumes were measured twice per week after randomization in two dimensions using a caliper, and the volume was expressed in mm^3 using the formula: “V=(L×W×W)/2,” where V is tumor volume, L is tumor length (the longest tumor dimension) and W is tumor width (the longest tumor dimension perpendicular to L). The average tumor volume for each group, as a percentage of the average tumor volume of the control group (group 1), is shown in FIG. 6. […] The percentage shown in FIG. 7 (% T/C) is calculated as mean(T)/mean(C)*100%, with “T” representing tumor volume and “C” representing tumor volume for group 1.
T and C are the mean tumor volume (or weight) of the treated groups and control group (group 1), respectively, on a given day. The percentages shown in FIG. 10 are calculated as % ΔT/C=(mean(T)−mean(T0))/(mean(C)−mean(C0))*100%, with “0” indicating the initial timepoint.

## CN1CC[C@H](c2c(O)cc(O)c3c(=O)cc(-c4ccccc4Cl)oc23)[C@H](O)C1 [alvocidib, 2-(2-chlorophenyl)-5,7-dihydroxy-8-[(3S,4R)-3-hydroxy-1-methylpiperidin-4-yl]chromen-4-one]
PC3 cells
  IC50: 102 nM
VCAP cells
  IC50: 34.5 nM
LNCaP cells
  IC50: 31.8 nM
22Rv1 cells
  IC50: 169 nM
[1]
  phospho- and total-AR protein levels: lowers phospho- and total-AR levels
[2]
  serum-stimulated induction of TMPRSS2 expression: inhibited serum-stimulated induction of TMPRSS2
[3]
  serum stimulated induction of PSA expression: inhibited serum stimulated induction of PSA
[4]
  RNA Pol II phosphorylation staining (flow cytometry): dose-dependent reduction
PSA in VCaP cells
  PSA expression at protein level: inhibited PSA expression
PSA in LNCaP cells
  PSA expression at protein level: inhibited PSA expression
[5]
  cell death, as indicated by caspase 3 cleavage: induced cell death
[6]
  retention of alvocidib in plasma and tumor: retained in plasma and tumor tissues
[7]; Cohort 1, 1 mg QD oral Formulation No. 401-01, Subject 104, after 24 hours on day 14
  accumulation of alvocidib in plasma: some accumulation
[7]; Cohort 2, 1 mg BID oral Formulation No. 401-01
  change in average Cmax and AUC of alvocidib from day 1 to day 14: marked increase
[7]; Cycle 1 Day 1, Mean of subjects 501-503
  Tmax: 60 min
[7]; Cycle 1 Day 1, Subject 501
  Tmax: 30 min
[7]; Cycle 1 Day 1, Subject 502
  Tmax: 120 min
[7]; Cycle 1 Day 1, Subject 503
  Tmax: 30 min
[7]; Cycle 1 Day 14, Mean of subjects 501-503
  Tmax: 60 min
[7]; Cycle 1 Day 14, Subject 501
  Tmax: 30 min
[7]; Cycle 1 Day 14, Subject 502
  Tmax: 120 min
[7]; Cycle 1 Day 14, Subject 503
  Tmax: 30 min

## CC(=O)O[C@@]12CO[C@@H]1C[C@H](O)[C@@]1(C)C(=O)[C@H](O)C3=C(C)[C@@H](OC(=O)[C@H](O)[C@@H](NC(=O)OC(C)(C)C)c4ccccc4)C[C@@](O)([C@@H](OC(=O)c4ccccc4)[C@H]21)C3(C)C [docetaxel, 1,7β,10β-trihydroxy-9-oxo-5β,20-epoxytax-11-ene-2α,4,13α-triyl 4-acetate 2-benzoate 13-{(2R,3S)-3-[(tert-butoxycarbonyl)amino]-2-hydroxy-3-phenylpropanoate}]
[8]
  anti-cancer activity in the 22Rv1 xenograft model (tumor growth): not active

## CNC(=O)c1ccc(N2C(=S)N(c3ccc(C#N)c(C(F)(F)F)c3)C(=O)C2(C)C)cc1F [enzalutamide, 4-(3-(4-cyano-3-(trifluoromethyl)phenyl)-5,5-dimethyl-4-oxo-2-thioxoimidazolidin-1-yl)-2-fluoro-N-methylbenzamide]
[8]
  anti-cancer activity in the 22Rv1 xenograft model (tumor growth): not active

## CC1(C)CCC(CN2CCN(c3ccc(C(=O)NS(=O)(=O)c4ccc(NCC5CCOCC5)c([N+](=O)[O-])c4)c(Oc4cnc5[nH]ccc5c4)c3)CC2)=C(c2ccc(Cl)cc2)C1 [venetoclax]
[8]
  anti-cancer activity in the 22Rv1 xenograft model (tumor growth): not active
